Like-named read-outs stand apart in the source and are kept apart here. Values belong to the molecule of their own block, whether it stands above or below them.
Legend:
[1] = assay type: physicochemical
Procedure: (§1) An experimental Log p value of [^125I]6 was −2.33 ± 0.04. The value was higher than that of the monomeric radioiodine-labeled RGD peptide [^125I]c[RGDf(4-I)K] (−3.04 ± 0.46) from our previous study.
The partition coefficient of [^125I]6 was measured as described previously. The radioactivity in each phase was measured with an auto-well gamma counter. The partition coefficient was determined by calculating the ratio of 1-octanol to the buffer and was expressed as a common logarithm (log P).

[2] = In vitro stability in PBS(−); assay type: physicochemical; conditions: PBS(−) pH 7.4, 37 °C, 24 h, 37 kBq tracer in 100 µL, RP-HPLC; mean ± SD for three samples
Procedure: An in vitro stability experiment of [^125I]6 in PBS(−) (pH 7.4) solution was performed. After incubation at 37 °C for 24 h, 90.8 ± 0.7% (mean ± SD for three samples) of its radioactivity remained intact.
To evaluate the stability of [^125I]6 in PBS(−), 10 µL of each tracer (37 kBq) was added to 90 µL of PBS(−) (pH 7.4), and the solutions were incubated at 37 °C for 24 h. After incubation, the samples were drawn, and the radioactivity was analyzed by RP-HPLC.

[3] = test system: U-87 MG tumor bearing mice; conditions: mouse
Procedure: A comparison of the biodistribution experiments in U-87 MG tumor mice between [^125I]6 and [^125I]c[RGDf(4-I)K] is shown in Figure 3 and Table S1. [^125I]6 was highly accumulated in the tumor based on the results of the in vitro assay. […] (2.93 ± 0.08% ID/g). The accumulation of [^125I]6 in the liver and intestines also tended to be higher than that of [^125I]c[RGDf(4-I)K]. Meanwhile, it is known that the radioactive accumulation in the thyroid gland and stomach is an index of deiodination of radioiodine labeled probes.
Experiments with animals were conducted in strict accordance with the Guidelines for the Care and Use of Laboratory Animals of Kanazawa University. The experimental protocols were approved by the Committee on Animal Experimentation of Kanazawa University. The animals were housed with free access to food and water at 23 °C with a 12 h alternating light/dark schedule. We used a U-87 MG cell line because it was reported that the U-87 MG highly expresses αvβ3 integrin [26]. […] The radioactivity counts of ^125I was determined with an auto-well gamma counter (ARC-7010, Hitachi, Ltd., Tokyo, Japan) and corrected for background radiation and physical decay during counting. […]
Table S1. Biodistribution of radioactivity after intravenous injection of […]
Expressed as % injected dose per gram. […]
‡ Expressed as % injected dose.
Significance was determined by paired Student’s t test. […]

αvβ3 integrin [4] = target: T1, αvβ3 integrin (Homo sapiens, UniProt P05106+P06756); test: αvβ3 integrin competitive binding assay with U-87 MG cells, radioligand [^125I]c[RGDy(3-I)V]; conditions: competitive inhibition of [^125I]c[RGDy(3-I)V] binding, mean ± SD for three independent experiments
T1 construct: host or cells: U-87 MG glioblastoma cells
Procedure: The affinity of 6 and E[c(RGDfK)]2, a dimer RGD peptide without iodine, for αvβ3 integrin was determined via a competitive binding assay with U-87 MG cells. Binding of the radioligand [^125I]c[RGDy(3-I)V] to αvβ3 integrin was inhibited by 6 and E[c(RGDfK)]2 in a concentration-dependent manner.
Binding affinities of synthesized peptides E[c(RGDfK)]2 and 6 for αvβ3 integrin were evaluated by competitive inhibition between the peptides and [^125I]c[RGDy(3-I)V], which was prepared by Fmoc solid-phase synthesis and following ^125I-labeling with chloramine-T method, to αvβ3 integrin according to a previously reported procedure. The peptides’ half maximal inhibitory concentration (IC50) values were calculated by curve fitting with nonlinear regression using GraphPad Prism 8.4.3 (GraphPad Software Inc., San Diego, CA, USA). Each data point is the average of four determinations, and IC50 values were expressed as mean ± standard deviation (SD) from three independent experiments.
Figure 2 αvβ3 Integrin binding assay. Representative displacement curves of the competitive binding of [^125I]c[RGDy(3-I)V] to αvβ3 integrin on U-87 MG cells with E[c(RGDfK)]2 and 6. Error bars represent SD.

αvβ3 integrin [5] = target: T1, αvβ3 integrin; conditions: monomer RGD peptide; cited from earlier work
Procedure: The binding affinity of 6 for αvβ3 integrin (IC50: 1.2 ± 0.5 nM) was higher than that of c[RGDf(4-I)K] […] It was reported that IC50 values of dimeric RGD peptides in the αvβ3 integrin competitive binding assay were an order lower than those of original monomeric RGD peptides. Thus, the IC50 value of dimerizing peptide 6 was consistent with those described in previous studies.

[6] = cited from earlier work
From the text: as §1

Log p (partition coefficient) [1]: −2.33 ± 0.04
radioactivity remained intact [2]: 90.8 ± 0.7%
in vivo deiodination (radioactivity in neck containing thyroid glands and stomach) [3]: hardly occurred
Molecule: E[c(RGDfK)]{[^125I]c[RGDf(4-I)K]}2 [[^125I]6]

IC50 (αvβ3 integrin [4]): 1.2 ± 0.5 nM
Molecule: N=C(N)NCCC[C@@H]1NC(=O)[C@H](CCCCNC(=O)CC[C@H](N)C(=O)NCCCC[C@@H]2NC(=O)[C@@H](Cc3ccc(I)cc3)NC(=O)[C@H](CC(=O)O)NC(=O)CNC(=O)[C@H](CCCNC(=N)N)NC2=O)NC(=O)[C@@H](Cc2ccccc2)NC(=O)[C@H](CC(=O)O)NC(=O)CNC1=O [Compound 6, E[c(RGDfK)]{c[RGDf(4-I)K]}]

Molecule: c[RGDf(4-I)K]
IC50 (αvβ3 integrin [5]): 23.2 ± 17.2 nM

Molecule: [^125I]c[RGDf(4-I)K]
Log p (partition coefficient) [6]: −3.04 ± 0.46

Source: publication PMC8539346, “Synthesis and Evaluation of a Dimeric RGD Peptide as a Preliminary Study for Radiotheranostics with Radiohalogens” (Molecules, 2021)
